Patent US4923963A, “Bradykinin antagonist peptides” (Nova Technology Limited Partnership, priority 1987, dated 1990)
Like-named read-outs stand apart in the source and are kept apart here. Square brackets hold non-standard residues; d marks the D form. Peptide text beside a SMILES is read from it. dPhe(4-Cl) = N[C@H](Cc1ccc(Cl)cc1)C(=O)O; dPhe(4-F) = N[C@H](Cc1ccc(F)cc1)C(=O)O; d2Nal = N[C@H](Cc1ccc2ccccc2c1)C(=O)O; Hyp = O=C(O)[C@@H]1C[C@@H](O)CN1; 2Thi = N[C@@H](Cc1cccs1)C(=O)O; d2Thi = N[C@H](Cc1cccs1)C(=O)O

Assays:
[1] = tested on: isolated guinea pig ileum; type: cell-based; set-up: pA2 /GPI: activity class: scale not given here; settings: isolated guinea pig ileum; for pA2 /GPI: activity class: not quantitated
Description: (§1) The bradykinin antagonists were assayed on isolated rat uterus in natural or induced estrus and on guinea pig ileum, according to the commonly accepted assay methods for bradykinin and related kinins as described by Trautschold (Handbook of Expt. Pharmacol. Vol 25, Springer Verlag, pp. 53-55, 1970) for inhibition of the myotropic activity of bradykinin. The inhibition potencies, as determined according to the commonly accepted manner described by Schild for antagonists of biologically active compounds (Br. J. Pharmacol. 2:189, 1947), and expressed as pA2 values are determined on isolated rat uterus (RUT) and isolated guinea pig ileum (GPI). In the assays, a dose-response curve is determined for the reference substance bradykinin. The dose of bradykinin which produced a half maximal contraction of tissue is the ED50 dose. An amount of bradykinin equivalent to twice the ED50 dose is administered to the tissue 30 seconds after the start of incubation of the tissue with a dose of antagonist. Doses of antagonist are increased in this protocol until pre-incubation with a dose of antagonist reduces the contraction in response to the double ED50 dose of bradykinin to response of a single ED50 dose of bradykinin. The pA2 value represents the negative logarithm of the molar concentration of antagonist necessary to reduce the response of a double ED50 dose of bradykinin to that of an ED50 dose. One unit of pA2 value represents an order of magnitude change in potency. For comparison, the negative log of the dose of BK, the dose which causes half maximal contraction of the tissues, is commonly known as the pD2 value. The pD2 value for bradykinin is 7.9 on the rat uterus and 7.4 on the guinea pig ileum.

[2] = tested on: rat blood pressure; assay: effects on blood pressure in the anesthetized rat (RBP), intraaortic and intravenous bolus; type: in vivo; set-up: RBP-IA: activity class / RBP-IV: activity class: scale not given here; settings: rat blood pressure; for RBP-IA: activity class: intraaortic bolus; for RBP-IV: activity class: intravenous bolus
Description: The in vivo effects of bradykinin antagonists on blood pressure in the anesthetized rat are determined according to the assay described by Roblero, Ryan and Stewart (Res. Commun. Pathol. Pharmacol. 6:207, 1973). The antagonists also produce inhibition of the bradykinin response when injected as a bolus admixture of bradykinin plus antagonist by either the ia or iv route of administration.

[3] = tested on: isolated rat uterus; type: cell-based; settings: for pA2 /RUT: activity class: not quantitated
Description: as §1

[4] = isolated rat uterus, number of tissues in parentheses

SMILES: CC[C@@H](C)[C@@H](N)C(=O)N1CCC[C@H]1C(=O)N1C[C@H](O)C[C@H]1C(=O)NCC(=O)N[C@@H](Cc1ccccc1)C(=O)N[C@@H](CO)C(=O)N[C@H](Cc1ccccc1)C(=O)N[C@@H](Cc1ccccc1)C(=O)N[C@@H](CCCNC(=N)N)C(=O)O [Example 17, DIle-Pro-Hyp-Gly-Phe-Ser-DPhe-Phe-Arg] (H-[dI]P[Hyp]GFS[dF]FR-OH)
- pA2 /GPI: activity class [1]: 0
- RBP-IA: activity class [2]: 0
- RBP-IV: activity class [2]: 0

SMILES: N=C(N)NCCC[C@@H](N)C(=O)N[C@H](Cc1ccc2ccccc2c1)C(=O)N1CCC[C@H]1C(=O)N1C[C@H](O)C[C@H]1C(=O)NCC(=O)N[C@@H](Cc1ccccc1)C(=O)N[C@@H](CO)C(=O)N[C@H](Cc1ccccc1)C(=O)N[C@@H](Cc1ccccc1)C(=O)N[C@@H](CCCNC(=N)N)C(=O)O [Example 32, DArg-DNal-Pro-Hyp-Gly-Phe-Ser-DPhe-Phe-Arg] (H-[dR][d2Nal]P[Hyp]GFS[dF]FR-OH)
- pA2 /RUT (antagonist potency) [3]: 5.9
- pA2 /GPI: activity class [1]: 0

SMILES: N=C(N)NCCC[C@H](NC(=O)[C@H](Cc1ccccc1)NC(=O)[C@@H](Cc1ccccc1)NC(=O)[C@H](CO)NC(=O)[C@H](Cc1ccccc1)NC(=O)CNC(=O)[C@@H]1CCCN1C(=O)[C@@H]1CCCN1C(=O)[C@H](N)Cc1ccc(Cl)cc1)C(=O)O [Example 2, CDF-Pro-Pro-Gly-Phe-Ser-DPhe-Phe-Arg] (H-[dPhe(4-Cl)]PPGFS[dF]FR-OH)
- pA2 /RUT (antagonist potency) [3, 4]: 5.0
- pA2 /GPI: activity class [1]: 0

SMILES: N=C(N)NCCC[C@H](NC(=O)[C@H](Cc1cccs1)NC(=O)[C@@H](Cc1ccccc1)NC(=O)[C@H](CO)NC(=O)[C@H](Cc1cccs1)NC(=O)CNC(=O)[C@@H]1C[C@@H](O)CN1C(=O)[C@@H]1C[C@@H](O)CN1C(=O)[C@@H](Cc1ccc2ccccc2c1)NC(=O)[C@H](CCCCN)NC(=O)[C@@H](N)CCCCN)C(=O)O [Example 28, Lys-Lys-DNal-Hyp-Hyp-Gly-Thi-Ser-DPhe-Thi-Arg] (H-KK[d2Nal][Hyp][Hyp]G[2Thi]S[dF][2Thi]R-OH)
- pA2 /RUT: activity class ([3]; isolated rat uterus): 0
- pA2 /GPI: activity class [1]: 0

SMILES: CC(C)[C@@H](NC(=O)[C@H](N)CCCNC(=N)N)C(=O)N1CCC[C@H]1C(=O)N1C[C@H](O)C[C@H]1C(=O)NCC(=O)N[C@@H](Cc1ccccc1)C(=O)N[C@@H](CO)C(=O)N[C@H](Cc1ccccc1)C(=O)N[C@@H](Cc1ccccc1)C(=O)N[C@@H](CCCNC(=N)N)C(=O)O [Example 16, DArg-DVal-Pro-Hyp-Gly-Phe-Ser-DPhe-Phe-Arg] (H-[dR][dV]P[Hyp]GFS[dF]FR-OH)
- pA2 /GPI: activity class [1]: 0
- RBP-IA: activity class [2]: 0
- RBP-IV: activity class [2]: 0

SMILES: N=C(N)NCCC[C@@H](N)C(=O)N[C@H](Cc1ccc2ccccc2c1)C(=O)N1CCC[C@H]1C(=O)N1CCC[C@H]1C(=O)NCC(=O)N[C@@H](Cc1ccccc1)C(=O)N[C@@H](CO)C(=O)N[C@H](Cc1ccccc1)C(=O)N[C@@H](Cc1ccccc1)C(=O)N[C@@H](CCCNC(=N)N)C(=O)O [Example 31, DArg-DNal-Pro-Pro-Gly-Phe-Ser-DPhe-Phe-Arg] (H-[dR][d2Nal]PPGFS[dF]FR-OH)
- pA2 /RUT (antagonist potency) [3]: 5.6
- pA2 /GPI: activity class [1]: 0

SMILES: CC(=O)N[C@@H](CCCNC(=N)N)C(=O)N1CCC[C@H]1C(=O)N1CCC[C@H]1C(=O)NCC(=O)N[C@@H](Cc1cccs1)C(=O)N[C@@H](CO)C(=O)N[C@H](Cc1ccccc1)C(=O)N[C@@H](Cc1cccs1)C(=O)N[C@H](CCCNC(=N)N)C(N)=O [Example 56, Ac-Arg-Pro-Pro-Gly-Thi-Ser-DPhe-Thi-DArg-NH2] (Ac-RPPG[2Thi]S[dF][2Thi][dR]-NH2)
- pA2 /RUT: activity class ([3]; isolated rat uterus): 0
- pA2 /GPI: activity class [1]: 0

SMILES: CC(=O)N[C@@H](CCCNC(=N)N)C(=O)N1CCC[C@H]1C(=O)N1CCC[C@H]1C(=O)NCC(=O)N[C@@H](Cc1cccs1)C(=O)N[C@@H](CO)C(=O)N[C@H](Cc1ccccc1)C(=O)N[C@@H](Cc1cccs1)C(=O)N[C@@H](CCCNC(=N)N)C(N)=O [Example 52, Ac-Arg-Pro-Pro-Gly-Thi-Ser-DPhe-Thi-Arg-NH2] (Ac-RPPG[2Thi]S[dF][2Thi]R-NH2)
- pA2 /RUT: activity class ([3]; isolated rat uterus): 0
- pA2 /GPI: activity class [1]: 0

SMILES: N=C(N)NCCC[C@@H](N)C(=O)N[C@H](Cc1ccc2ccccc2c1)C(=O)N1C[C@H](O)C[C@H]1C(=O)N1C[C@H](O)C[C@H]1C(=O)NCC(=O)N[C@@H](Cc1cccs1)C(=O)N[C@@H](CO)C(=O)N[C@H](Cc1ccccc1)C(=O)N[C@@H](Cc1cccs1)C(=O)N[C@@H](CCCNC(=N)N)C(=O)O [Example 27, DArg-DNal-Hyp-Hyp-Gly-Thi-Ser-DPhe-Thi-Arg] (H-[dR][d2Nal][Hyp][Hyp]G[2Thi]S[dF][2Thi]R-OH)
- pA2 /RUT (antagonist potency) [3]: 5.3
- pA2 /GPI: activity class [1]: 0

SMILES: N=C(N)NCCC[C@@H](N)C(=O)N[C@H](Cc1ccc(F)cc1)C(=O)N1CCC[C@H]1C(=O)N1C[C@H](O)C[C@H]1C(=O)NCC(=O)N[C@@H](Cc1ccccc1)C(=O)N[C@@H](CO)C(=O)N[C@H](Cc1ccccc1)C(=O)N[C@@H](Cc1ccccc1)C(=O)N[C@@H](CCCNC(=N)N)C(=O)O [Example 12, DArg-FDF-Pro-Hyp-Gly-Phe-Ser-DPhe-Phe-Arg] (H-[dR][dPhe(4-F)]P[Hyp]GFS[dF]FR-OH)
- pA2 /RUT (antagonist potency) [3, 4]: 5.7
- pA2 /GPI: activity class [1]: 0

SMILES: N=C(N)NCCC[C@@H](N)C(=O)N[C@H](Cc1ccc(Cl)cc1)C(=O)N1CCC[C@H]1C(=O)N1CCC[C@H]1C(=O)NCC(=O)N[C@@H](Cc1ccccc1)C(=O)N[C@@H](CO)C(=O)N[C@H](Cc1ccccc1)C(=O)N[C@@H](Cc1ccccc1)C(=O)N[C@@H](CCCNC(=N)N)C(=O)O [Example 4, DArg-CDF-Pro-Pro-Gly-Phe-Ser-DPhe-Phe-Arg] (H-[dR][dPhe(4-Cl)]PPGFS[dF]FR-OH)
- pA2 /RUT (antagonist potency) [3, 4]: 5.4
- pA2 /GPI: activity class [1]: 0

SMILES: CC[C@@H](C)[C@@H](NC(=O)[C@H](N)CCCNC(=N)N)C(=O)N1CCC[C@H]1C(=O)N1C[C@H](O)C[C@H]1C(=O)NCC(=O)N[C@@H](Cc1ccccc1)C(=O)N[C@@H](CO)C(=O)N[C@H](Cc1ccccc1)C(=O)N[C@@H](Cc1ccccc1)C(=O)N[C@@H](CCCNC(=N)N)C(=O)O [Example 18, DArg-DIle-Pro-Hyp-Gly-Phe-Ser-DPhe-Phe-Arg] (H-[dR][dI]P[Hyp]GFS[dF]FR-OH)
- pA2 /GPI: activity class [1]: 0
- RBP-IA: activity class [2]: 0
- RBP-IV: activity class [2]: 0

SMILES: N=C(N)NCCC[C@H](NC(=O)[C@H](Cc1cccs1)NC(=O)[C@@H](Cc1ccccc1)NC(=O)[C@H](CO)NC(=O)[C@H](Cc1cccs1)NC(=O)CNC(=O)[C@@H]1C[C@@H](O)CN1C(=O)[C@@H]1C[C@@H](O)CN1C(=O)[C@H](N)Cc1ccc2ccccc2c1)C(=O)O [Example 26, DNal-Hyp-Hyp-Gly-Thi-Ser-DPhe-Thi-Arg] (H-[d2Nal][Hyp][Hyp]G[2Thi]S[dF][2Thi]R-OH)
- pA2 /RUT: activity class ([3]; isolated rat uterus): 0
- pA2 /GPI: activity class [1]: 0

SMILES: N=C(N)NCCC[C@H](NC(=O)[C@H](Cc1ccccc1)NC(=O)[C@@H](Cc1cccs1)NC(=O)[C@H](CO)NC(=O)[C@H](Cc1ccccc1)NC(=O)CNC(=O)[C@@H]1C[C@@H](O)CN1C(=O)[C@@H]1CCCN1C(=O)[C@H](N)Cc1ccc2ccccc2c1)C(=O)O [Example 38, DNal-Pro-Hyp-Gly-Phe-Ser-DThi-Phe-Arg] (H-[d2Nal]P[Hyp]GFS[d2Thi]FR-OH)
- pA2 /RUT: activity class ([3]; isolated rat uterus): 0
- pA2 /GPI: activity class [1]: 0

SMILES: CC[C@H](C)[C@H](NC(=O)[C@H](CCCNC(=N)N)NC(=O)[C@H](Cc1cccs1)NC(=O)[C@@H](Cc1ccccc1)NC(=O)[C@H](CO)NC(=O)[C@H](Cc1cccs1)NC(=O)CNC(=O)[C@@H]1CCCN1C(=O)[C@@H]1CCCN1C(=O)[C@H](CCCNC(=N)N)NC(=O)[C@H](N)CCCNC(=N)N)C(=O)N[C@@H](Cc1ccc(O)cc1)C(=O)O [Example 66, DArg-Arg-Pro-Pro-Gly-Thi-Ser-DPhe-Thi-Arg-Ile-Tyr] (H-[dR]RPPG[2Thi]S[dF][2Thi]RIY-OH)
- pA2 /RUT: agonist potency as percent of BK potency [3]: 0.3%
- pA2 /GPI (antagonist potency) ([1]; number of tissues in parentheses): 5.8

SMILES: N=C(N)NCCC[C@H](NC(=O)[C@H](Cc1ccccc1)NC(=O)[C@@H](Cc1cccs1)NC(=O)[C@H](CO)NC(=O)[C@H](Cc1ccccc1)NC(=O)CNC(=O)[C@@H]1CCCN1C(=O)[C@@H]1CCCN1C(=O)[C@H](N)Cc1ccc(Cl)cc1)C(=O)O [Example 6, CDF-Pro-Pro-Gly-Phe-Ser-DThi-Phe-Arg] (H-[dPhe(4-Cl)]PPGFS[d2Thi]FR-OH)
- pA2 /GPI: activity class [1]: 0
- RBP-IA: activity class [2]: 0
- RBP-IV: activity class [2]: 0

SMILES: N=C(N)NCCC[C@@H](N)C(=O)N[C@H](Cc1cccs1)C(=O)N1CCC[C@H]1C(=O)N1C[C@H](O)C[C@H]1C(=O)NCC(=O)N[C@@H](Cc1ccccc1)C(=O)N[C@@H](CO)C(=O)N[C@H](Cc1cccs1)C(=O)N[C@@H](Cc1ccccc1)C(=O)N[C@@H](CCCNC(=N)N)C(=O)O [Example 36, DArg-DThi-Pro-Hyp-Gly-Phe-Ser-DThi-Phe-Arg] (H-[dR][d2Thi]P[Hyp]GFS[d2Thi]FR-OH)
- pA2 /GPI: activity class [1]: 0
